Biological target: T1, CDK11 (Inactive) (Homo sapiens, UniProt Q9BWU1)
T1 construct: purchased Thermo Fisher Scientific (Life Technologies) SelectScreen
Assay: SelectScreen LanthaScreen
Type: binding
Details: 1 µM
Summary of the method: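 Percent values come from Thermo SelectScreen profiling of NU5455, combining activity and binding assays. CSF1R was run in Z'LYTE format at Km app ATP, and CAMK1 in Adapta format with ATP listed at 10.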

T1 sequence (Q9BWU1 whole entry): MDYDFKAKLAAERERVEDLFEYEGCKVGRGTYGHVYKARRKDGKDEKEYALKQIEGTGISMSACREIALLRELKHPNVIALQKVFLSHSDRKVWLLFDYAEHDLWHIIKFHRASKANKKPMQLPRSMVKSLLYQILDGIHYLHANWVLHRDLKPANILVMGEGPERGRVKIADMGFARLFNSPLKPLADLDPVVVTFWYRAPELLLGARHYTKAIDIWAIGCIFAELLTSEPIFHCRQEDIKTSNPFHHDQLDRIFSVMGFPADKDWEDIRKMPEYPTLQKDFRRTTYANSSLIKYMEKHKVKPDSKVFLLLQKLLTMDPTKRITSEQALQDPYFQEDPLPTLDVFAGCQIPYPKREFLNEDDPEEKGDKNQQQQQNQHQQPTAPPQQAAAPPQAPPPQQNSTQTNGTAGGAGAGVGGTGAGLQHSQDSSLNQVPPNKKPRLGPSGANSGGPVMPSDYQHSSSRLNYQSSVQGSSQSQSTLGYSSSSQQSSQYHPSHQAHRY

CN(C(=O)CN1CCOCC1)c1ccc2sc3c(-c4cccc5c(=O)cc(N6CC7CCC(C6)O7)oc45)cccc3c2c1 [NU5455]
% displacement: 1.7%

Reference: PMC6934184, “Selective DNA-PKcs inhibition extends the therapeutic index of localized radiotherapy and chemotherapy” (The Journal of Clinical Investigation, 2019)
